Measurements: ChEMBL document CHEMBL3232991, “New polyfunctional imidazo[4,5-C]pyridine motifs: synthesis, crystal studies, docking studies and antimicrobial evaluation” (Eur J Med Chem, 2014)
Converted amounts (≈) assume the structure as drawn. The source made the active and inactive calls. The calls are words filed in the database; no cut-off is given here.

Tests used:
Bacillus cereus [1] = assay: Antibacterial activity against Bacillus cereus NCIM 2155 assessed as diameter of growth inhibition zone at 500 ug/ml after 20 hrs by agar disc diffusion method; type: functional; details: for zone of inhibition at 500 µg/mL: NCIM 2155, 20 h, read-out: DIZ
Bacillus cereus [2] = assay: Antibacterial activity against Bacillus cereus NCIM 2155 assessed as diameter of growth inhibition zone at 1000 ug/ml after 20 hrs by agar disc diffusion method; type: functional; details: for zone of inhibition at 1000 µg/mL: NCIM 2155, 20 h, read-out: DIZ
Candida albicans [3] = assay: Antifungal activity against Candida albicans MTCC 183 assessed as diameter of growth inhibition zone at 500 ug/ml after 4 days by agar disc diffusion method; type: functional; details: for zone of inhibition at 500 µg/mL: MTCC 183, 96 h, read-out: DIZ
Escherichia coli [4] = assay: Antibacterial activity against Escherichia coli NCIM 2931 assessed as diameter of growth inhibition zone at 500 ug/ml after 20 hrs by agar disc diffusion method; type: functional; details: for zone of inhibition at 500 µg/mL: NCIM 2931, 20 h, read-out: DIZ
Saccharomyces cerevisiae [5] = assay: Antifungal activity against Saccharomyces cerevisiae NCIM 3044 assessed as diameter of growth inhibition zone at 1000 ug/ml after 4 days by agar disc diffusion method; type: functional; details: for zone of inhibition at 1000 µg/mL: NCIM 3044, 96 h, read-out: DIZ
Saccharomyces cerevisiae [6] = assay: Antifungal activity against Saccharomyces cerevisiae NCIM 3044 assessed as diameter of growth inhibition zone at 500 ug/ml after 4 days by agar disc diffusion method; type: functional; details: for zone of inhibition at 500 µg/mL: NCIM 3044, 96 h, read-out: DIZ
Staphylococcus aureus [7] = assay: Antibacterial activity against Staphylococcus aureus MTCC 4102 assessed as diameter of growth inhibition zone at 1000 ug/ml after 20 hrs by agar disc diffusion method; type: functional
Pseudomonas aeruginosa [8] = assay: Antibacterial activity against Pseudomonas aeruginosa MTCC 4727 assessed as diameter of growth inhibition zone at 1000 ug/ml after 20 hrs by agar disc diffusion method; type: functional; details: for zone of inhibition at 1000 µg/mL: MTCC 4727, 20 h, read-out: DIZ
Candida albicans [9] = assay: Antifungal activity against Candida albicans MTCC 183 assessed as diameter of growth inhibition zone at 1000 ug/ml after 4 days by agar disc diffusion method; type: functional; details: for zone of inhibition at 1000 µg/mL: MTCC 183, 96 h, read-out: DIZ
Escherichia coli [10] = assay: Antibacterial activity against Escherichia coli NCIM 2931 assessed as diameter of growth inhibition zone at 1000 ug/ml after 20 hrs by agar disc diffusion method; type: functional; details: for zone of inhibition at 1000 µg/mL: NCIM 2931, 20 h, read-out: DIZ
Pseudomonas aeruginosa [11] = assay: Antibacterial activity against Pseudomonas aeruginosa MTCC 4727 assessed as diameter of growth inhibition zone at 500 ug/ml after 20 hrs by agar disc diffusion method; type: functional; details: for zone of inhibition at 500 µg/mL: MTCC 4727, 20 h, read-out: DIZ
Staphylococcus aureus [12] = assay: Antibacterial activity against Staphylococcus aureus MTCC 4102 assessed as diameter of growth inhibition zone at 500 ug/ml after 20 hrs by agar disc diffusion method; type: functional
Saccharomyces cerevisiae [13] = assay: Antifungal activity against Saccharomyces cerevisiae NCIM 3044 assessed as diameter of growth inhibition zone at 10 ug/ml after 4 days by agar disc diffusion method; type: functional
Bacillus cereus [14] = assay: Antibacterial activity against Bacillus cereus NCIM 2155 assessed as diameter of growth inhibition zone at 10 ug/ml after 20 hrs by agar disc diffusion method; type: functional
Pseudomonas aeruginosa [15] = assay: Antibacterial activity against Pseudomonas aeruginosa MTCC 4727 assessed as diameter of growth inhibition zone at 10 ug/ml after 20 hrs by agar disc diffusion method; type: functional
Escherichia coli [16] = assay: Antibacterial activity against Escherichia coli NCIM 2931 assessed as diameter of growth inhibition zone at 10 ug/ml after 20 hrs by agar disc diffusion method; type: functional
Candida albicans [17] = assay: Antifungal activity against Candida albicans MTCC 183 assessed as diameter of growth inhibition zone at 10 ug/ml after 4 days by agar disc diffusion method; type: functional
Staphylococcus aureus [18] = assay: Antibacterial activity against Staphylococcus aureus MTCC 4102 assessed as diameter of growth inhibition zone at 10 ug/ml after 20 hrs by agar disc diffusion method; type: functional
Saccharomyces cerevisiae [19] = assay: Antifungal activity against Saccharomyces cerevisiae NCIM 3044 assessed as growth inhibition after 48 hrs by broth microdilution method; type: functional, organism-based; details: NCIM 3044, 48 h
Escherichia coli [20] = assay: Antibacterial activity against Escherichia coli NCIM 2931 assessed as growth inhibition after 24 hrs by broth microdilution method; type: functional, organism-based; details: NCIM 2931, 24 h
Candida albicans [21] = assay: Antifungal activity against Candida albicans MTCC 183 assessed as assessed as growth inhibition after 48 hrs by broth microdilution method; type: functional, organism-based; details: MTCC 183, 48 h

Row | SMILES | diameter of the inhibition zone (DIZ) (Bacillus cereus [1]) | diameter of the inhibition zone (DIZ) (Bacillus cereus [2]) | diameter of the inhibition zone (DIZ) (Candida albicans [3]) | diameter of the inhibition zone (DIZ) (Escherichia coli [4]) | diameter of the inhibition zone (DIZ) (Saccharomyces cerevisiae [5]) | diameter of the inhibition zone (DIZ) (Saccharomyces cerevisiae [6]) | diameter of the inhibition zone (DIZ) (Staphylococcus aureus [7]) | diameter of the inhibition zone (DIZ) (Candida albicans [9]) | diameter of the inhibition zone (DIZ) (Escherichia coli [10]) | diameter of the inhibition zone (DIZ) (Staphylococcus aureus [12]) | diameter of the inhibition zone (DIZ) (Pseudomonas aeruginosa [8]) | diameter of the inhibition zone (DIZ) (Pseudomonas aeruginosa [11]) | also measured
1 | N#CC1CCCN(c2ncc(-c3cccc(F)c3)c3[nH]c(CSc4ccccc4)nc23)C1 (centres undefined) | inactive | inactive | inactive | inactive | inactive | inactive | inactive | inactive | inactive | inactive |  |  | zone of inhibition at 1000 µg/mL (Pseudomonas aeruginosa [8]): 11 mm; zone of inhibition at 500 µg/mL (Pseudomonas aeruginosa [11]): 5.2 mm
2 | CN[C@@H]1[C@H](O[C@H]2[C@H](O[C@H]3[C@H](O)[C@@H](O)[C@H](N=C(N)N)[C@@H](O)[C@@H]3N=C(N)N)O[C@@H](C)[C@]2(O)C=O)O[C@@H](CO)[C@H](O)[C@H]1O [STREPTOMYCIN] |  |  |  |  |  |  |  |  |  |  |  |  | diameter of the inhibition zone (DIZ) (Saccharomyces cerevisiae [13]): inactive; zone of inhibition at 10 µg/mL (Bacillus cereus [14]; NCIM 2155, 20 h, read-out: DIZ): 20.2 mm; zone of inhibition at 10 µg/mL (Pseudomonas aeruginosa [15]; MTCC 4727, 20 h, read-out: DIZ): 20.9 mm; zone of inhibition at 10 µg/mL (Escherichia coli [16]; NCIM 2931, 20 h, read-out: DIZ): 21.4 mm; diameter of the inhibition zone (DIZ) (Candida albicans [17]): inactive; zone of inhibition at 10 µg/mL (Staphylococcus aureus [18]; MTCC 4102, 20 h, read-out: DIZ): 23.8 mm
3 | CC(C)(C)Cc1nc2c(N3CCCC(C#N)C3)ncc(-c3cccc(F)c3)c2[nH]1 (centres undefined) | inactive | inactive | inactive | inactive | inactive | inactive | inactive | inactive | inactive | inactive | inactive | inactive | 
4 | N#CC1CCCN(c2ncc(-c3cccc(F)c3)c3[nH]c(C4CCCCC4)nc23)C1 (centres undefined) | inactive | inactive | inactive |  | inactive | inactive | inactive | inactive |  | inactive | inactive | inactive | zone of inhibition at 500 µg/mL (Escherichia coli [4]): 6 mm; zone of inhibition at 1000 µg/mL (Escherichia coli [10]): 12.5 mm
5 | N#CC1CCCN(c2ncc(-c3cccc(F)c3)c3[nH]c(COc4ccccc4)nc23)C1 (centres undefined) |  |  | inactive | inactive |  |  | inactive | inactive | inactive | inactive | inactive | inactive | zone of inhibition at 500 µg/mL (Bacillus cereus [1]): 2.8 mm; zone of inhibition at 1000 µg/mL (Bacillus cereus [2]): 6 mm; zone of inhibition at 1000 µg/mL (Saccharomyces cerevisiae [5]): 19 mm; zone of inhibition at 500 µg/mL (Saccharomyces cerevisiae [6]): 8.7 mm; IC50 (Saccharomyces cerevisiae [19]): 192 µg/mL (≈ 449 µM); MIC (Saccharomyces cerevisiae [19]): 384 µg/mL (≈ 898 µM)
6 | N#CC1CCCN(c2ncc(-c3cccc(F)c3)c3[nH]c(CCc4ccccc4)nc23)C1 (centres undefined) |  |  | inactive | inactive | inactive | inactive | inactive | inactive | inactive | inactive | inactive | inactive | zone of inhibition at 500 µg/mL (Bacillus cereus [1]): 6.7 mm; zone of inhibition at 1000 µg/mL (Bacillus cereus [2]): 13 mm
7 | N#CC1CCCN(c2ncc(-c3cccc(F)c3)c3[nH]c(-c4ccco4)nc23)C1 (centres undefined) | inactive | inactive | inactive |  |  |  | inactive | inactive |  | inactive | inactive | inactive | zone of inhibition at 500 µg/mL (Escherichia coli [4]): 8 mm; zone of inhibition at 1000 µg/mL (Saccharomyces cerevisiae [5]): 15 mm; zone of inhibition at 500 µg/mL (Saccharomyces cerevisiae [6]): 6.9 mm; IC50 (Escherichia coli [20]): 74.5 µg/mL (≈ 192 µM); MIC (Escherichia coli [20]): 198 µg/mL (≈ 510 µM); IC50 (Saccharomyces cerevisiae [19]): 98.8 µg/mL (≈ 255 µM); MIC (Saccharomyces cerevisiae [19]): 296 µg/mL (≈ 765 µM); zone of inhibition at 1000 µg/mL (Escherichia coli [10]): 16 mm
8 | Cn1cc(-c2cnc(N3CCC(C#N)CC3)c3nc(Cc4ccc(Cl)cc4Cl)[nH]c23)cn1 | inactive | inactive | inactive | inactive | inactive | inactive | inactive | inactive | inactive | inactive | inactive | inactive | 
9 | Cc1cccc(Cc2nc3c(N4CCCC(C#N)C4)ncc(-c4cccc(F)c4)c3[nH]2)c1 (centres undefined) | inactive | inactive |  | inactive | inactive | inactive | inactive |  | inactive | inactive |  |  | zone of inhibition at 500 µg/mL (Candida albicans [3]): 6.8 mm; zone of inhibition at 1000 µg/mL (Pseudomonas aeruginosa [8]): 13 mm; zone of inhibition at 1000 µg/mL (Candida albicans [9]): 15 mm; IC50 (Candida albicans [21]): 206 µg/mL (≈ 485 µM); MIC (Candida albicans [21]): 404 µg/mL (≈ 950 µM); zone of inhibition at 500 µg/mL (Pseudomonas aeruginosa [11]): 6.2 mm
10 | N#CC1CCCN(c2ncc(-c3cccc(F)c3)c3[nH]c(Cc4cc(F)ccc4F)nc23)C1 (centres undefined) | inactive | inactive | inactive | inactive | inactive | inactive | inactive | inactive | inactive | inactive | inactive | inactive | 
11 | CCC(CC)c1nc2c(N3CCCC(C#N)C3)ncc(-c3cccc(F)c3)c2[nH]1 (centres undefined) | inactive | inactive | inactive | inactive | inactive | inactive | inactive | inactive | inactive | inactive | inactive | inactive | 
12 | Cn1cc(-c2cnc(N3CCC(C#N)CC3)c3nc(CCc4ccccc4)[nH]c23)cn1 | inactive | inactive |  |  | inactive | inactive |  |  |  |  | inactive | inactive | zone of inhibition at 500 µg/mL (Candida albicans [3]): 12.3 mm; zone of inhibition at 500 µg/mL (Escherichia coli [4]): 5.4 mm; zone of inhibition at 1000 µg/mL (Staphylococcus aureus [7]; MTCC 4102, 20 h, read-out: DIZ): 10 mm; zone of inhibition at 1000 µg/mL (Candida albicans [9]): 22 mm; IC50 (Candida albicans [21]): 73.7 µg/mL (≈ 179 µM); MIC (Candida albicans [21]): 195 µg/mL (≈ 475 µM); zone of inhibition at 1000 µg/mL (Escherichia coli [10]): 12 mm; zone of inhibition at 500 µg/mL (Staphylococcus aureus [12]; MTCC 4102, 20 h, read-out: DIZ): 4.2 mm
13 | OC(Cn1cncn1)(Cn1cncn1)c1ccc(F)cc1F [FLUCONAZOLE] |  |  |  |  |  |  |  |  |  |  |  |  | zone of inhibition at 10 µg/mL (Saccharomyces cerevisiae [13]; NCIM 3044, 96 h, read-out: DIZ): 24 mm; diameter of the inhibition zone (DIZ) (Bacillus cereus [14]): inactive; diameter of the inhibition zone (DIZ) (Pseudomonas aeruginosa [15]): inactive; diameter of the inhibition zone (DIZ) (Escherichia coli [16]): inactive; zone of inhibition at 10 µg/mL (Candida albicans [17]; MTCC 183, 96 h, read-out: DIZ): 25 mm; diameter of the inhibition zone (DIZ) (Staphylococcus aureus [18]): inactive
